Patent publication US10752612B2, “PLK4 inhibitors” (LUDWIG INSTITUTE FOR CANCER RESEARCH LTD, priority 2015, dated 2020)

target: T1, human Plk4 kinase domain (aa 2-275) (Homo sapiens, UniProt O00444); assay: Plk4 kinase assay (ADP-Glo); format: biochemical; conditions: Table 1
T1 construct: purified 6×His-tagged human Plk4 kinase domain (aa 2-275); 6xHis; made in house; host or cells: E. coli
T1 sequence (O00444 2-275): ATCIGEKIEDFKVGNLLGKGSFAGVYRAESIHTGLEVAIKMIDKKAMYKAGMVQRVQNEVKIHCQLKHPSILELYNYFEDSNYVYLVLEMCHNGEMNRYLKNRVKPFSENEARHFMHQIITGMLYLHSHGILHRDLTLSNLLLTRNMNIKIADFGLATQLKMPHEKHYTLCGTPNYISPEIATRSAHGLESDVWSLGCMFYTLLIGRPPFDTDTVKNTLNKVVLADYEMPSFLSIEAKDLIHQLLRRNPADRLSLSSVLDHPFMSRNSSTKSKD
Method: Kinase assays. […] The Plk4 concentration in the final reaction was 2.5-10 nM with a final pH of 8.0. […] Reactions were allowed to proceed for 4-16 hours at 25° C. Detection was performed using ADP-Glo reagent (Promega), following manufacturer's instructions. Luminescence was measured on an Infinite M1000 plate reader (Tecan). Data were fit using Prism (GraphPad) and Kis were calculated from IC50 data using the Cheng and Prusoff equation (37) or the Copeland formalism for tight-binding inhibitors (38).

Compound	IC50
Cc1cc(Nc2nc(Sc3ccc(NC(=O)C4CC4)cc3)nc3c2CCC3)n[nH]1	> 1000 nM
CCc1c(C)nc(Sc2ccc(NC(=O)C3CC3)cc2)nc1Nc1cc(C)[nH]n1	> 1000 nM
CCN(C)c1nc(Sc2ccc(NC(=O)C3CCCC3)cc2)nc(Nc2cc(C)[nH]n2)c1OC	100 to 1000 nM
COc1c(Nc2cc(C)[nH]n2)nc(Sc2ccc(NC(=O)C3CCCC3)cc2)nc1N1CCCCC1	100 to 1000 nM
COCCN(C)c1nc(Sc2ccc(NC(=O)C3CCCC3)cc2)nc(Nc2cc(C)[nH]n2)c1OC	100 to 1000 nM
CCOc1c(Nc2cc(C)[nH]n2)nc(Sc2ccc(NC(=O)C3CC3)cc2)nc1N1CCCCC1	100 to 1000 nM
CCOc1c(Nc2cc(C)[nH]n2)nc(Sc2ccc(NC(=O)C3CC3)cc2)nc1N1CCN(CCN(C)C)CC1	100 to 1000 nM
CCOc1c(NCCOC)nc(Sc2ccc(NC(=O)C3CC3)cc2)nc1Nc1cc(C)[nH]n1	100 to 1000 nM
CCOc1c(Nc2cc(C)[nH]n2)nc(Sc2ccc(NC(=O)C3CC3)cc2)nc1N1CCN(C(C)=O)CC1	100 to 1000 nM
CCS(=O)(=O)c1ccc(Sc2nc(Nc3cc(C)[nH]n3)c(OC)c(N3CCOCC3)n2)cc1	< 1000 nM
COc1c(Nc2cc(C)[nH]n2)nc(Sc2ccc(S(=O)(=O)Cc3cccc([N+](=O)[O-])c3)cc2)nc1N1CCN(CCN(C)C)CC1	< 1000 nM
COc1c(Nc2cc(C)[nH]n2)nc(Sc2ccc(S(=O)(=O)Cc3ccc([N+](=O)[O-])cc3)cc2)nc1N1CCN(CCN(C)C)CC1	< 1000 nM
CCN(CC)c1nc(Sc2ccc(S(=O)(=O)Cc3ccccc3)cc2)nc(Nc2cc(C)[nH]n2)c1OC	< 1000 nM
CCN(CC)c1nc(Sc2ccc(S(=O)(=O)CC)cc2)nc(Nc2cc(C)[nH]n2)c1OC	< 1000 nM
CCOc1c(Nc2cc(C)[nH]n2)nc(Sc2ccc(S(=O)(=O)Cc3ccccc3)cc2)nc1N1CCNCC1	> 1000 nM
CCOc1c(Nc2cc(C)[nH]n2)nc(Sc2ccc(S(=O)(=O)CC)cc2)nc1N1CCNCC1	< 1000 nM

Compound	IC50
COc1c(Nc2cc(C)[nH]n2)nc(Sc2ccc(S(=O)(=O)Cc3ccc(F)cc3F)cc2)nc1N1CCN(CCN(C)C)CC1	< 1000 nM
COc1c(Nc2cc(C)[nH]n2)nc(Sc2ccc(S(=O)(=O)Cc3ccccc3F)cc2)nc1N1CCN(CCN(C)C)CC1	< 1000 nM
COc1c(Nc2cc(C)[nH]n2)nc(Sc2ccc(S(=O)(=O)Cc3ccccc3)cc2)nc1N1CCN(CCN(C)c2ccccc2)CC1	< 1000 nM
CCCOc1c(Nc2cc(C)[nH]n2)nc(Sc2ccc(S(=O)(=O)Cc3ccccc3)cc2)nc1N1CCN(CCN(C)C)CC1	< 1000 nM
Cc1cc(Nc2nc(Sc3ccc(S(=O)(=O)Cc4ccccc4)cc3)nc(N3CCN(CCN(C)C)CC3)c2OC(C)C)n[nH]1	< 1000 nM
COc1c(Nc2cc(C)[nH]n2)nc(Sc2ccc(S(=O)(=O)Cc3cccc(O)c3)cc2)nc1N1CCN(CCN(C)C)CC1	< 1000 nM
COc1c(Nc2cc(C)[nH]n2)nc(Sc2ccc(S(=O)(=O)Cc3cccc(OCc4ccccc4)c3)cc2)nc1N1CCN(CCN(C)C)CC1	< 1000 nM
COc1c(Nc2cc(C)[nH]n2)nc(Nc2ccc(S(=O)(=O)Cc3ccccc3)cc2)nc1N1CCN(CCN(C)C)CC1	< 1000 nM
CCOc1c(Nc2cc(C)[nH]n2)nc(Sc2ccc(S(=O)(=O)Cc3ccccc3)cc2)nc1N1CCN(CCN2C3CCCC2CC3)CC1	< 1000 nM
CCOc1c(Nc2cc(C)[nH]n2)nc(Sc2ccc(S(=O)(=O)CC)cc2)nc1N1CCC(CCN(C)C)CC1	< 1000 nM
CCOc1c(Nc2cc(C)[nH]n2)nc(Sc2ccc(S(=O)(=O)Cc3cc(F)ccc3F)cc2)nc1N1CCN(CCN(C)C)CC1	< 1000 nM
COc1c(Nc2cc(C)[nH]n2)nc(Sc2ccc(S(=O)(=O)Cc3cccc(-c4ccccc4)c3)cc2)nc1N1CCN(CCN(C)C)CC1	< 1000 nM
COc1c(Nc2cc(C)[nH]n2)nc(Sc2ccc(S(=O)(=O)Cc3cccc(C(C)=O)c3)cc2)nc1N1CCN(CCN(C)C)CC1	< 1000 nM
COc1c(Nc2cc(C)[nH]n2)nc(Sc2ccc(S(=O)(=O)Cc3cccc([N+](=O)[O-])c3)cc2)nc1N1CCOCC1	< 1000 nM
COc1c(Nc2cc(C)[nH]n2)nc(Sc2ccc(S(=O)(=O)Cc3ccccc3)cc2)nc1N1CCN(Cc2ccccc2)CC1	< 1000 nM
COc1c(Nc2cc(C)[nH]n2)nc(Sc2ccc(S(=O)(=O)Cc3ccccc3)cc2F)nc1N1CCN(CCN(C)C)CC1	< 1000 nM

Other lines, results leading:

IC50	Compound
< 1000 nM	COCCNc1nc(Sc2ccc(NC(=O)C3CCCC3)cc2)nc(Nc2cc(C)[nH]n2)c1OC
< 1000 nM	COc1c(Nc2cc(C)[nH]n2)nc(Sc2ccc(NC(=O)C3CCCC3)cc2)nc1N1CCN(C(C)=O)CC1
< 1000 nM	COCCN1CCN(c2nc(Sc3ccc(NC(=O)C4CCCC4)cc3)nc(Nc3cc(C)[nH]n3)c2OC)CC1
< 1000 nM	CCOc1c(Nc2cc(C)[nH]n2)nc(Sc2ccc(NC(=O)C3CC3)cc2)nc1N1CCOCC1
< 1000 nM	COc1c(Nc2cc(C)[nH]n2)nc(Sc2ccc(NC(=O)C3CCCC3)cc2)nc1N1CCN(C)CC1
< 1000 nM	COc1c(Nc2cc(C)[nH]n2)nc(Sc2ccc(NC(=O)C3CCCC3)cc2)nc1N1CCNCC1
< 1000 nM	COc1c(Nc2cc(C)[nH]n2)nc(Sc2ccc(NC(=O)C3CCCC3)cc2)nc1N1CCN(CCN(C)C)CC1
< 1000 nM	COc1ccc(CS(=O)(=O)c2ccc(Sc3nc(Nc4cc(C)[nH]n4)c(OC)c(N4CCN(CCN(C)C)CC4)n3)cc2)cc1
< 1000 nM	COc1c(Nc2cc(C)[nH]n2)nc(Sc2ccc(S(=O)(=O)Cc3ccccc3Cl)cc2)nc1N1CCN(CCN(C)C)CC1
< 1000 nM	COc1c(Nc2cc(C)[nH]n2)nc(Sc2ccc(S(=O)(=O)Cc3cccc(Cl)c3)cc2)nc1N1CCN(CCN(C)C)CC1
< 1000 nM	COc1c(Nc2cc(C)[nH]n2)nc(Sc2ccc(S(=O)(=O)Cc3ccncc3)cc2)nc1N1CCN(CCN(C)C)CC1
< 1000 nM	COc1c(Nc2cc(C)[nH]n2)nc(Sc2ccc(S(C)(=O)=O)cc2)nc1N1CCC(CCN(C)C)CC1
< 1000 nM	COc1c(Nc2cc(C)[nH]n2)nc(Sc2ccc(S(=O)(=O)Cc3ccccc3)cc2)nc1N1CCC(CCN(C)C)CC1
< 1000 nM	COc1c(Nc2cc(C)[nH]n2)nc(Sc2ccc(S(=O)(=O)Cc3ccccc3)cc2)nc1N1CCN(C)CC1
< 1000 nM	CCS(=O)(=O)c1ccc(Sc2nc(Nc3cc(C)[nH]n3)c(OC)c(N3CCN(C)CC3)n2)cc1
< 1000 nM	COc1c(Nc2cc(C)[nH]n2)nc(Sc2ccc(S(=O)(=O)Cc3cccnc3)cc2)nc1N1CCN(CCN(C)C)CC1
< 1000 nM	COc1c(Nc2cc(C)[nH]n2)nc(Sc2ccc(S(=O)(=O)Cc3ccc(Cl)cc3)cc2)nc1N1CCN(CCN(C)C)CC1
< 1000 nM	COc1c(Nc2cc(C)[nH]n2)nc(Sc2ccc(S(=O)(=O)Cc3ccccc3)cc2)nc1N1CCN(CCN2C3CCCC2CCC3)CC1
< 1000 nM	COc1c(Nc2cc(C)[nH]n2)nc(Sc2ccc(S(=O)(=O)Cc3cccs3)cc2)nc1N1CCN(CCN(C)C)CC1
< 1000 nM	CCS(=O)(=O)c1ccc(Sc2nc(Nc3cc(C)[nH]n3)c(OC)c(N3CCNCC3)n2)cc1

IC50	Compound
< 1000 nM	COc1c(Nc2cc(C)[nH]n2)nc(Sc2ccc(S(=O)(=O)Cc3nccs3)cc2)nc1N1CCN(CCN(C)C)CC1
< 1000 nM	CCS(=O)(=O)c1ccc(Sc2nc(Nc3cc(C)[nH]n3)c(OC)c(C3CCN(CCN(C)C)CC3)n2)cc1
< 1000 nM	COc1c(Nc2cc(C)[nH]n2)nc(Sc2ccc(S(=O)(=O)Cc3ccccc3)cc2)nc1C1CCN(CCN(C)C)CC1
< 1000 nM	CCS(=O)(=O)c1ccc(Sc2nc(Nc3cc(C)[nH]n3)c(OC)c(N3CCC(CCN4C5CCCC4CCC5)CC3)n2)cc1
< 1000 nM	COc1c(Nc2cc(C)[nH]n2)nc(Sc2ccc(S(=O)(=O)Cc3ncc[nH]3)cc2)nc1N1CCN(CCN(C)C)CC1
< 1000 nM	CCS(=O)(=O)c1ccc(Sc2nc(C)c(OC)c(Nc3cc(C)[nH]n3)n2)cc1
< 1000 nM	COc1c(C)nc(Sc2ccc(S(=O)(=O)Cc3ccccc3)cc2)nc1Nc1cc(C)[nH]n1
< 1000 nM	COc1c(Nc2cc(C)[nH]n2)nc(Sc2ccc(S(=O)(=O)CCN(C)C)cc2)nc1N1CCN(CCN(C)C)CC1
< 1000 nM	COc1c(Nc2cc(C)[nH]n2)nc(Sc2ccc(S(=O)(=O)c3ccccc3)cc2)nc1N1CCN(CCN(C)C)CC1
< 1000 nM	COc1c(Nc2cc(C)[nH]n2)nc(Sc2ccc(S(=O)(=O)Cc3ncco3)cc2)nc1N1CCN(CCN(C)C)CC1
< 1000 nM	CCOc1c(Nc2cc(C)[nH]n2)nc(Sc2ccc(S(=O)(=O)CC)cc2)nc1N1CCN(CCN(C)C)CC1
< 1000 nM	CCOc1c(Nc2cc(C)[nH]n2)nc(Sc2ccc(S(=O)(=O)Cc3ccccc3)cc2)nc1N1CCN(CCN(C)C)CC1
< 1000 nM	COc1c(Nc2cc(C)[nH]n2)nc(Sc2ccc(S(=O)(=O)Cc3ccccc3)cc2)nc1N1CCOCC1
< 1000 nM	COc1c(Nc2cc(C)[nH]n2)nc(Sc2ccc(S(=O)(=O)Cc3ccccc3)cc2)nc1N(C)C
< 1000 nM	COc1c(Nc2cc(C)[nH]n2)nc(Sc2ccc(S(=O)(=O)Cc3ccccc3)cc2)nc1N1CCCCC1
< 1000 nM	COc1c(Nc2cc(C)[nH]n2)nc(Sc2ccc(S(=O)(=O)Cc3ccccc3)cc2)nc1N1CCN(CCN2CCN(C)CC2)CC1
< 1000 nM	COc1c(Nc2cc(C)[nH]n2)nc(Sc2ccc(S(=O)(=O)Cc3ccccc3)cc2)nc1N1CCN(CCN2C3CCCC2CC3)CC1
< 1000 nM	Cc1cc(Nc2cc(N3CCN(CCN(C)C)CC3)nc(Sc3ccc(S(=O)(=O)Cc4ccccc4)cc3)n2)n[nH]1
< 1000 nM	COc1c(Nc2cc[nH]n2)nc(Sc2ccc(S(=O)(=O)Cc3ccccc3)cc2)nc1N1CCN(CCN(C)C)CC1
< 1000 nM	CCS(=O)(=O)c1ccc(Sc2nc(Nc3cc(C)[nH]n3)c(OC)c(N3CCCCC3)n2)cc1
